pIC50: −log10 of the molar value.
Assays:
Human Calpain 9/NS1 = target: T1, Human Calpain 9/NS1 (Homo sapiens, UniProt O14815); assay: Calpain inhibition, continuous fluorescence (FRET substrate) assay, calpain 9; assay type: biochemical; conditions: SensoLyte 520 FRET substrate, 25C
T1 sequence (O14815 1-690): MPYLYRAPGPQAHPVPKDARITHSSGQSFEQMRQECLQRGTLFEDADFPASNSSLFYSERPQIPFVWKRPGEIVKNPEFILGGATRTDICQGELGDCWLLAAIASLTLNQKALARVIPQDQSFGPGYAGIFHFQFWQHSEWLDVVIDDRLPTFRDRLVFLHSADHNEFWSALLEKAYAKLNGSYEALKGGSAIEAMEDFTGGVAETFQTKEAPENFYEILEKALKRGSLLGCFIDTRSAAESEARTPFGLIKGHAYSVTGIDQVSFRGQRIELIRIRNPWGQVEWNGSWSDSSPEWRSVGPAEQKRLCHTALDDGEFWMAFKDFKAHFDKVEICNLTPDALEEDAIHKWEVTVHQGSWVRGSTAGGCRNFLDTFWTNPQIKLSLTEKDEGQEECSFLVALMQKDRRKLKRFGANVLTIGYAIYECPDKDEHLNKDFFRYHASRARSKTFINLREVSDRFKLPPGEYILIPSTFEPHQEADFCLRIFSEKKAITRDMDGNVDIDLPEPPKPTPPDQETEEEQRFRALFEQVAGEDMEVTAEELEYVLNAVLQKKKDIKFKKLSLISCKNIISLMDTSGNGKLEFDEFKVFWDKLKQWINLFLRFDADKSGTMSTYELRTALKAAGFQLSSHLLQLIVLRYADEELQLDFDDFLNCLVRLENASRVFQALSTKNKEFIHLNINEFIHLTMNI
T1 sequence (P04632 1-268 partner): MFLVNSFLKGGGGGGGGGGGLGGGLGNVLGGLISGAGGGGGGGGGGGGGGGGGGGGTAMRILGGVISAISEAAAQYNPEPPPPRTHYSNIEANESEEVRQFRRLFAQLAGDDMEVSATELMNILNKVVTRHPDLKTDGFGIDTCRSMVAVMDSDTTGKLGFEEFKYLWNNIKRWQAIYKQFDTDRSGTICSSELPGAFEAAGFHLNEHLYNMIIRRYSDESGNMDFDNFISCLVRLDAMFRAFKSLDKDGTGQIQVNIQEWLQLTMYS
Experimental: (§1) Calpain 1, 2, and 9 activity and inhibition thereof was assessed by means of a continuous fluorescence assay. The SensoLyte 520 Calpain substrate (Anaspec Inc) was optimized for detecting calpain activity. This substrate contains an internally quenched 5-FAM/QXLTM 520 FRET pair. Calpains 1, 2, and 9 cleave the FRET substrate into two separate fragments resulting in an increase of 5-FAM fluorescence that is proportional to calpain activity Assays were typically setup in black 384-well plates using automated liquid handling as follows. Calpain assay base buffer typically contains 50 mM Tris, pH 7.5, 100 mM NaCl and 1 mM DTT. Inhibitors were serially diluted in DMSO and used to setup 2× mixtures with calpains in the aforementioned buffer. After incubation at ambient temperature (25C), the reaction was initiated by adding a 2× mix of the fluorescent peptide substrate and CaCl2) (required for in-situ calpain activation) in the same buffer. Reaction progress curve data were typically collected for 10 min using excitation/emission wavelengths of 490 nm/520 nm on SpectraMax i3× or the FLIPR-Tetra plate readers (Molecular Devices Inc). Reaction rates were calculated from progress curve slopes typically over 1-5 min. Dose response curves (rate vs. log inhibitor concentration) were typically fit to a 4-parameter logistic function to extract IC50 values.

Human Calpain 1/NS1 = target: T2, Human Calpain 1/NS1 (Homo sapiens, UniProt P07384); assay: Calpain inhibition, continuous fluorescence (FRET substrate) assay, calpain 1; assay type: biochemical; conditions: SensoLyte 520 FRET substrate, 25C
T2 sequence (P07384 1-714): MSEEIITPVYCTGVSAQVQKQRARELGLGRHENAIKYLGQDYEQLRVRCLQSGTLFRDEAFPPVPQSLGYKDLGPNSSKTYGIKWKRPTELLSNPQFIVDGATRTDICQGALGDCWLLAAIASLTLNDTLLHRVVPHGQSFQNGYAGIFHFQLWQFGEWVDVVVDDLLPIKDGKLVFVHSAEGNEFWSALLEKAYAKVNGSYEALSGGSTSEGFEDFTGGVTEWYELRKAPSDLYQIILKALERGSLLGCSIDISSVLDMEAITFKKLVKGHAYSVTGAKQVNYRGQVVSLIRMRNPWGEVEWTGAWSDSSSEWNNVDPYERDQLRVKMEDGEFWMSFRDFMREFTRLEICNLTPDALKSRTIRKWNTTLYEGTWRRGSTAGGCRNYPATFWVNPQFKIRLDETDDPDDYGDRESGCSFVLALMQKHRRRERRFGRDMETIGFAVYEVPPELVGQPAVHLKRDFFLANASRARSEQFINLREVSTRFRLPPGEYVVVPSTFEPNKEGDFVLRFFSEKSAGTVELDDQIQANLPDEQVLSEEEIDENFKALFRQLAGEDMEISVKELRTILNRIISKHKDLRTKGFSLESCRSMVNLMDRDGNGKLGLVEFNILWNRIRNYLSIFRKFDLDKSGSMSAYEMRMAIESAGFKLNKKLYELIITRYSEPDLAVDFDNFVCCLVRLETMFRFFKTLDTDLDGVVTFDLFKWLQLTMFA
T2 sequence (P04632 1-268 partner): T1 sequence (P04632 1-268 partner)
Experimental: as §1

Human Calpain 2/NS1 = target: T3, Human Calpain 2/NS1 (Homo sapiens, UniProt P17655); assay: Calpain inhibition, continuous fluorescence (FRET substrate) assay, calpain 2; assay type: biochemical; conditions: SensoLyte 520 FRET substrate, 25C
T3 sequence (P17655 1-700): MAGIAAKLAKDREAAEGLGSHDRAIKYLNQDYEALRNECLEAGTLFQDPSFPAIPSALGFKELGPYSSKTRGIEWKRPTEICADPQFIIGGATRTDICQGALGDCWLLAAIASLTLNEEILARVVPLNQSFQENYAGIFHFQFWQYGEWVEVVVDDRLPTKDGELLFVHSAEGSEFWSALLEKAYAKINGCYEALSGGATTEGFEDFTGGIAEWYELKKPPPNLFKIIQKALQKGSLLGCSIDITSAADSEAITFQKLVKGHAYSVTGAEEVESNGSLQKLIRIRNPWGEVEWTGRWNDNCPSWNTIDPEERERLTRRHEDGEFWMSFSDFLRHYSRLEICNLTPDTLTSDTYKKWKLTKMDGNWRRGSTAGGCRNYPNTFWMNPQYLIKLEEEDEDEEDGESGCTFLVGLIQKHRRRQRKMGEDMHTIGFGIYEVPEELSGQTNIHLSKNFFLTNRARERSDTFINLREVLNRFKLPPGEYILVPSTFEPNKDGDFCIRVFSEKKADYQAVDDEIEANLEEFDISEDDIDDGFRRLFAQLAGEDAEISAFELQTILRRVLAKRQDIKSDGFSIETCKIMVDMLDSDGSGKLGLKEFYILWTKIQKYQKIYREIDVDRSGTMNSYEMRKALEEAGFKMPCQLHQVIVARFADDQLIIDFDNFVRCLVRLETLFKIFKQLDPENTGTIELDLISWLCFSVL
T3 sequence (P04632 1-268 partner): T1 sequence (P04632 1-268 partner)
Experimental: as §1

[1] = system: Calpain activity in SH-SY5Y cells; assay: SH-SY5Y spectrin breakdown product (SBDP-150) western blot assay; assay type: cell-based; conditions: Homo sapiens, read-out: SH-SY5Y Spectrin IC50
[2] = system: Calpain activity in SH-SY5Y cells; assay: SH-SY5Y Suc-LLVY-AMC fluorescence assay; assay type: cell-based; conditions: Homo sapiens, read-out: SH-SY5Y + AMC IC50
[3] = SH-SY5Y cells, 25 uM A23187, SBDP-150 western blot
[4] = SH-SY5Y cells, 100 uM Suc-LLVY-AMC

Row | pIC50 (Human Calpain 9/NS1) | pIC50 (Human Calpain 1/NS1) | pIC50 (Human Calpain 2/NS1) | pIC50 [1, 3] | pIC50 [2, 4] | SMILES | pIC50 ([1]; SH-SY5Y) | pIC50 ([2]; SH-SY5Y)
1 | > 5.52 | > 5.52 | > 5.52 | 4.60 to 5.00 | > 5.00 | Cc1nc(-c2coc(Cl)c2)c(C(=O)NC(Cc2ccccc2)C(=O)C(N)=O)o1 (centres unmarked) [Compound 92, N-(4-AMINO-3,4-DIOXO-1-PHENYLBUTAN-2-YL)-4-(5-CHLOROFURAN-3-YL)-2-METHYLOXAZOLE-5-CARBOXAMIDE] | – | –
2 | > 5.52 | > 5.52 | > 5.52 | 4.60 to 5.00 | 4.60 to 5.00 | Cn1cc(C(=O)NC(Cc2ccccc2)C(=O)C(N)=O)c(-c2cccc3c2cnn3C)n1 (centres unmarked) [Compound 32, N-(4-AMINO-3,4-DIOXO-1-PHENYLBUTAN-2-YL)-1-METHYL-3-(1-METHYL-1H-INDAZOL-4-YL)-1H-PYRAZOLE-4-CARBOXAMIDE] | – | –
3 | > 5.52 | > 5.52 | > 5.52 | 4.60 to 5.00 | 4.60 to 5.00 | NC(=O)C(=O)C(Cc1ccccc1)NC(=O)c1cn(C(F)F)nc1-c1cccc2oc(=O)[nH]c12 (centres unmarked) [Compound 50, N-(4-AMINO-3,4-DIOXO-1-PHENYLBUTAN-2-YL)-1-(DIFLUOROMETHYL)-3-(2-OXO-2,3-DIHYDROBENZO[D]OXAZOL-4-YL)-1H-PYRAZOLE-4-CARBOXAMIDE] | – | –
4 | > 5.52 | > 5.52 | > 5.52 | > 5.00 | > 5.00 | Cc1nc(-c2ccccc2F)c(C(=O)NC(Cc2ccccc2F)C(=O)C(N)=O)o1 (centres unmarked) [Compound 80, N-(4-AMINO-1-(2-FLUOROPHENYL)-3,4-DIOXOBUTAN-2-YL)-4-(2-FLUOROPHENYL)-2-METHYLOXAZOLE-5-CARBOXAMIDE] | – | –
5 | > 5.52 | > 5.52 | > 5.52 | < 4.60 | > 5.00 | Cn1cc(C(=O)NC(Cc2ccccc2)C(=O)C(=O)O)c(-c2cccc(F)c2)n1 (centres unmarked) [Compound 72, 3-(3-(3-FLUOROPHENYL)-1-METHYL-1H-PYRAZOLE-4-CARBOXAMIDO)-2-OXO-4-PHENYLBUTANOIC ACID] | – | –
6 | > 5.52 | > 5.52 | > 5.52 | > 5.00 | 4.60 to 5.00 | CC(C)n1c(=O)[nH]c2c(-c3nn(C)cc3C(=O)NC(Cc3ccccc3)C(=O)C(N)=O)cccc21 (centres unmarked) [Compound 103, N-(4-AMINO-3,4-DIOXO-1-PHENYLBUTAN-2-YL)-3-(1-ISOPROPYL-2-OXO-2,3-DIHYDRO-1H-BENZO[D]IMIDAZOL-4-YL)-1-METHYL-1H-PYRAZOLE-4-CARBOXAMIDE] | – | –
7 | > 5.52 | > 5.52 | > 5.52 | 4.60 to 5.00 | > 5.00 | Cc1nc(-c2cc(Cl)oc2C)c(C(=O)NC(Cc2ccccc2)C(=O)C(N)=O)o1 (centres unmarked) [Compound 98, N-(4-AMINO-3,4-DIOXO-1-PHENYLBUTAN-2-YL)-4-(5-CHLORO-2-METHYLFURAN-3-YL)-2-METHYLOXAZOLE-5-CARBOXAMIDE] | – | –
8 | > 5.52 | > 5.52 | > 5.52 | 4.60 to 5.00 | > 5.00 | NC(=O)C(=O)C(Cc1ccccc1)NC(=O)c1nsnc1-c1ccc(F)cc1 (centres unmarked) [Compound 3, N-(4-AMINO-3,4-DIOXO-1-PHENYLBUTAN-2-YL)-4-(4-FLUOROPHENYL)-1,2,5-THIADIAZOLE-3-CARBOXAMIDE] | – | –
9 | > 5.52 | > 5.52 | > 5.52 | 4.60 to 5.00 | < 4.60 | Cn1cc(C(=O)NC(Cc2ccccc2)C(=O)C(N)=O)c(-n2cnc3ccccc32)n1 (centres unmarked) [Compound 9, N-(4-AMINO-3,4-DIOXO-1-PHENYLBUTAN-2-YL)-3-(1H-BENZO[D]IMIDAZOL-1-YL)-1-METHYL-1H-PYRAZOLE-4-CARBOXAMIDE] | – | –
10 | > 5.52 | > 5.52 | > 5.52 | > 5.00 | > 5.00 | Cc1occc1-c1nn(C(F)F)cc1C(=O)NC(Cc1ccccc1)C(=O)C(N)=O (centres unmarked) [Compound 26, N-(4-AMINO-3,4-DIOXO-1-PHENYLBUTAN-2-YL)-1-(DIFLUOROMETHYL)-3-(2-METHYLFURAN-3-YL)-1H-PYRAZOLE-4-CARBOXAMIDE] | – | –
11 | > 5.52 | > 5.52 | > 5.52 | < 4.60 | < 4.60 | COc1cc2nccc(-c3nn(C)cc3C(=O)NC(Cc3ccccc3)C(=O)C(N)=O)c2cc1OC (centres unmarked) [Compound 37, N-(4-AMINO-3,4-DIOXO-1-PHENYLBUTAN-2-YL)-3-(6,7-DIMETHOXYQUINOLIN-4-YL)-1-METHYL-1H-PYRAZOLE-4-CARBOXAMIDE] | – | –
12 | > 5.52 | > 5.52 | > 5.52 | > 5.00 | > 5.00 | Cc1nc(-c2ccccc2F)c(C(=O)NC(Cc2ccc(Cl)cc2)C(=O)C(N)=O)o1 (centres unmarked) [Compound 96, N-(4-AMINO-1-(4-CHLOROPHENYL)-3,4-DIOXOBUTAN-2-YL)-4-(2-FLUOROPHENYL)-2-METHYLOXAZOLE-5-CARBOXAMIDE] | – | –

Row | SMILES | pIC50 (Human Calpain 9/NS1) | pIC50 (Human Calpain 1/NS1) | pIC50 (Human Calpain 2/NS1) | pIC50 [1, 3] | pIC50 [2, 4] | pIC50 ([1]; SH-SY5Y) | pIC50 ([2]; SH-SY5Y)
13 | CNC(=O)c1cccc(-c2nn(C)cc2C(=O)NC(Cc2ccccc2)C(=O)C(N)=O)c1 (centres unmarked) [Compound 17] | > 5.52 | > 5.52 | > 5.52 | – | – | < 4.60 | 4.60 to 5.00
